Assay results reported in PubChem BioAssay (NCI).
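Assay format: 96-well plates, 48-hour exposure. At the TGI there is no net growth.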

Assays:
Assay in all cases: NCI tumour cell line growth inhibition, 48 h
DLD-1 colon = system: DLD-1 colon
DMS 114 small cell lung = system: DMS 114 small cell lung
DMS 273 small cell lung = system: DMS 273 small cell lung
HOP-18 NSCLC = system: HOP-18 NSCLC
M19-MEL melanoma = system: M19-MEL melanoma
XF 498 CNS = system: XF 498 CNS
RXF-631 renal = system: RXF-631 renal
P388 leukemia = system: P388 leukemia
P388/ADR leukemia = system: P388/ADR leukemia
SN12K1 renal = system: SN12K1 renal

Compound	TGI (DLD-1 colon) [µM]	TGI (DMS 114 small cell lung) [µM]	TGI (DMS 273 small cell lung) [µM]	TGI (HOP-18 NSCLC) [µM]	TGI (M19-MEL melanoma) [µM]	TGI (XF 498 CNS) [µM]	TGI (RXF-631 renal) [µM]	TGI (P388 leukemia) [µM]	TGI (P388/ADR leukemia) [µM]	TGI (SN12K1 renal) [µM]
O=C(CSc1nc(-c2ccccc2)c(-c2ccccc2)[nH]1)N/N=C/c1ccc(O)cc1	> 100	57.5	48.3	> 100	51	99.6	–	–	–	–
COc1ccc([C@@H]2CC(=O)N2)cc1	> 100	> 100	> 100	> 100	–	> 100	–	–	–	–
O=C(c1ccccc1)C1S(=O)(=O)OCCOS1(=O)=O	> 100	> 100	> 100	–	> 100	> 100	> 100	–	–	–
Cc1cc2c(C)n(Cc3ccccc3Cl)nc2c(C(=O)O)c1C	> 100	–	> 100	> 100	> 100	> 100	–	–	–	–
O=C1N2Cc3c4ccc5c3CN3C(=O)N6Cc7c(ccc(c7CN1C6(c1ccccc1)C23c1ccccc1)OCCOCCNCCOCCO4)OCCOCCNCCOCCO5 (configuration not stated)	> 100	> 100	> 100	28.9	> 100	> 100	> 100	–	–	–
COCN1COCN=C1NC#N	> 100	> 100	> 100	> 100	> 100	> 100	> 100	–	–	–
NC1=NS(=O)(=O)Nc2nc(-c3ccccc3)[nH]c21	> 100	> 100	> 100	> 100	> 100	> 100	–	–	–	–
O=C(CC1OC(O)C(Cl)=C1Cl)c1cccnc1 (configuration not stated)	–	> 56.5	> 100	> 100	> 100	> 100	> 100	–	–	–
C=C1C(=O)O[C@@H]2[C@H](O)[C@@H](C)[C@@H]3C=CC(=O)[C@@]3(C)[C@@H](OC(=O)/C(C)=C/C)[C@H]12	1.31	3.63	3.56	4.75	1.22	0.867	–	2.74	1.08	0.688
O=C1CC(c2ccccc2)=Nc2ccccc2N1	> 100	–	> 100	> 100	> 100	> 100	–	–	–	–
